Measurements from US7872045B2, “Combination therapy for glaucoma treatment” (Allergan, Inc., priority 2001, dated 2011).

Legend:
[1] = biological target: T1, human EP4 receptor (hEP4) (Homo sapiens, UniProt P35408); experiment: Radioligand binding competition vs [3H]PGE2, human recombinant EP4 receptor; conditions: [3H]PGE2 competition, plasma membranes of HEK-293 stable transfectants, 60 min 25° C.
T1 construct: expressed in transfected cells; plasma membrane fraction
Experimental: Human Recombinant EP1, EP2, EP4, and FP Receptors: Stable Transfectants
(§1) HEK-293 cells stably expressing the human or feline FP receptor, or EP1, EP2, EP3, or EP4 receptors were washed with TME buffer, scraped from the bottom of the flasks, and homogenized for 30 sec using a Brinkman PT 10/35 polytron. TME buffer was added to achieve a final 40 ml volume in the centrifuge tubes (the composition of TME is […]; ION HCl is added to achieve a pH of 7.4).
The cell homogenate was centrifuged at 19000 r.p.m. for 20 min at 4° C. using a Beckman Ti-60 rotor. The resultant pellet was resuspended in TME buffer to give a final 1 mg/ml protein concentration, as determined by Biorad assay. Radioligand binding competition assays vs. [^3H-]17 -phenyl PGF2α (5 nM) were performed in a 100 μl volume for 60 min. Binding reactions were started by adding plasma membrane fraction. The reaction was terminated by the addition of 4 ml ice-cold TRIS-HCl buffer and rapid filtration through glass fiber GF/B filters using a Brandel cell harvester. The filters were washed 3 times with ice-cold buffer and oven dried for one hour. Non-specific binding was determined with 10 uM unlabeled 17 -phenyl PGF2α.
(§2) [^3H-] PGE2 (5 nM; specific activity 180 Ci mmol) was used as the radioligand for EP receptors. Binding studies employing EP1, EP2, EP3, EP4 were performed in duplicate in at least three separate experiments. A 200 μl assay volume was used. Incubations were for 60 min at 25° C. and were terminated by the addition of 4 ml of ice-cold 50 mM TRIS-HCl, followed by rapid filtration through Whatman GF/B filters and three additional 4 ml washes in a cell harvester (Brandel). Non-specific binding determined with 10^−5M of unlabeled PGE2,.
Plasmids encoding the human EP1, EP2, EP4, and FP receptors were prepared by cloning the respective coding sequences into the eukaryotic expression vector pCEP4 (Invitrogen). The pCEP4 vector contains an Epstein Barr virus (EBV) origin of replication, which permits episomal replication in primate cell lines expressing EBV nuclear antigen (EBNA-1). Similarly, competitive experiments were caried out using [3H]17-phenylPGF2α at 5 nM in the presence of test ligands at various concentrations. Also non-specific binding was, determined in the presence of excess unlabeled PGF2α (10^−5 M).
It also contains a hygromycin resistance gene that is used for eukaryotic selection. The cells employed for stable transfection were human embryonic kidney cells (HEK-293) that were transfected with and express the EBNA-1 protein. These HEK-293-EBNA cells (Invitrogen) were grown in medium containing Geneticin (G418) to maintain expression of the EBNA-1 protein. HEK-293 cells were grown in DMEM with 10% fetal bovine serum (FBS), 250 μg ml G418 (Life Technologies) and 200 μg ml^−1 gentamicin or penicillin/streptomycin.
For transfection, the cells were grown to 50-60% confluency on 10 cm plates. The plasmid pCEP4 incorporating cDNA inserts for the respective human prostanoid receptor (20 μg) was added to 500 μl of 250 mM CaCl2. HEPES buffered saline ×2 (2×HBS, 280 mM NaCl, 20 mM HEPES acid, 1.5 mM Na2 HPO4, pH 7.05-7.12) was then added dropwise to a total of […], with continuous vortexing at room temperature. After 30 min, 9 ml DMEM were added to the mixture. The DNA/DMEM/calcium phosphate mixture was then added to the cells, which had been previously rinsed with 10 ml PBS. The cells were then incubated for 5 hr at 37° C. in humidified 95% air/5% CO2. The calcium phosphate solution was then removed and the cells were treated with 10% glycerol in DMEM for 2 min. The glycerol solution was then replaced by DMEM with 10% FBS. The cells were incubated overnight and the medium was replaced by DMEM/10% FBS containing 250 μg ml^−1 G418 and penicillin/streptomycin. The following day hygromycin B was added to a final concentration of 200 μg ml^−1. […]

[2] = biological target: T2, human EP3 receptor (hEP3, D isoform) (Homo sapiens, UniProt P43115); experiment: Radioligand binding competition vs [3H]PGE2, human recombinant EP3 receptor; conditions: [3H]PGE2 competition, plasma membranes of transfected cells (COS-7 transient; HEK-293 also named), 60 min 25° C.
T2 construct: expressed in transfected cells; host or cells: COS-7 cells, transient transfection with pcDNA3 (lipofectin); plasma membrane fraction
T2 sequence (P43115 1-374 isoform P43115-4): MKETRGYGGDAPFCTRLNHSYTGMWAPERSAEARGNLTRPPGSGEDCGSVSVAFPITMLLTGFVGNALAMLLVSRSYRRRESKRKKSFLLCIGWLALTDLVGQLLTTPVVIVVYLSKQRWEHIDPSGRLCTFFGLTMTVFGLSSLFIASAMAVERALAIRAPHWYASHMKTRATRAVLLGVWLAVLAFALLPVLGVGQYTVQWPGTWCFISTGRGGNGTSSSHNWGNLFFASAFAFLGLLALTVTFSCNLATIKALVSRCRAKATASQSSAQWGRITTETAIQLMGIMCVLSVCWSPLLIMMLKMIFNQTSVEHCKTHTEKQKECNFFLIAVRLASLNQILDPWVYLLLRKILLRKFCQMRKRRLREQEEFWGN
Experimental: as §1, §2
Human Recombinant EP3 and TP Receptors: Transient Transfectants.
Plasmids encoding the human EP3 (D isoform) or TP receptor were prepared by cloning the respective coding sequences into a pcDNA3 vector (Invitrogen). COS-7 cells were transfected with pcDNA3 containing cDNA encoding the EP3 or TP receptor by employing the lipofectin method, according to the manufacturers instructions (Gibco). For radioligand binding studies, cells were harvested two days after transfection.
Radioligand binding studies on plasma membrane fractions prepared from cells were performed as follows. Cells washed with TME buffer were scraped from the bottom of the plates and homogenized for 30 sec using a Brinkman PT 10/35 polytron. TME buffer was added as necessary to achieve a 40 ml volume in the centrifuge tubes. TME is comprised of 50 mM TRIS base, 10 mM MgCl2, 1 mM EDTA; pH 7.4 is achieved by adding 1 N HCl. The cell homogenate was centrifuged at 19,000 rpm for 20-25 min at 4° C. using a Beckman Ti-60 or T ? -70 rotor. The pellet was then resuspended in TME buffer to provide a final protein concentration of 1 mg/ml, as determined by Bio-Rad assay. Radioligand binding assays were performed in a 100 μl or 200 μl volume.
The binding of [^3H] PGE2 (specific activity 165 Ci/mmol) was determined in duplicate and, in at least 3 separate experiments. Incubations were for 60 min at 25° C. and were terminated by the addition of 4 ml of ice-cold 50 mM TRIS-HCl followed by rapid filtration through Whatman GF/B filters and three additional 4 ml washes in a cell harvester (Brandel). Competition studies were performed using a final concentration of 2.5 or 5 nM [H] PGE2 and non-specific binding was determined with 10^−5 M unlabelled PGE2.

T1 sequence (P35408 whole entry): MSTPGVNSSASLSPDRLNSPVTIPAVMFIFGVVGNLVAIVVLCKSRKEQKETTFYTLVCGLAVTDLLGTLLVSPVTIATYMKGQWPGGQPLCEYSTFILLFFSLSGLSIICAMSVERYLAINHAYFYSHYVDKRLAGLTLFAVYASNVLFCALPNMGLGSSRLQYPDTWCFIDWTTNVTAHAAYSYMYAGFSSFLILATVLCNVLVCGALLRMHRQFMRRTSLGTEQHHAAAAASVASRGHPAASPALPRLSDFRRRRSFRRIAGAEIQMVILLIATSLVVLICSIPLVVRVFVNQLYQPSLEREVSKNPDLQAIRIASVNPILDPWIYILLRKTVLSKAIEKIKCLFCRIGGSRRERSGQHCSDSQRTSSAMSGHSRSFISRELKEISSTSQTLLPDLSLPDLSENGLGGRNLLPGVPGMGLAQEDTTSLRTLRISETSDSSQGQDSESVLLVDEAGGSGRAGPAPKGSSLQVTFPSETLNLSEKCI

| IC50 [1] [nM] | IC50 [2] [µM] | Compound |
| --- | --- | --- |
| 500 |  | COC(=O)CSCCCS[C@H]1C(=O)C[C@@H](O)[C@@H]1/C=C/C(C)(O)CCc1ccc2ccccc2c1 (single isomer, unassigned) [Example 27H] |
| 3200 |  | COC(=O)CSCCCS[C@H]1C(=O)C[C@@H](O)[C@@H]1/C=C/C(C)(O)Cc1ccc2ccccc2c1 (stereo partly drawn) [Example 30L, {3-[(1R,2S,3R)-3-Hydroxy-2-((E)-3-hydroxy-3-methyl-4-naphthalen-2-yl-but-1-enyl)-5-oxocyclopentylsulfanyl]propylsulfanyl}acetic acid methyl ester] |
| 200 |  | COC(=O)CSCCCS[C@H]1C(=O)C[C@@H](O)[C@@H]1/C=C/C(O)Cc1csc2ccccc12 (single isomer, unassigned) [Example 24H] |
| 200 |  | COC(=O)CSCCCS[C@H]1C(=O)C[C@@H](O)[C@@H]1/C=C/[C@@](C)(O)CCc1cc2ccccc2s1 [Example 33H, {3-[(1R,2S,3R)-3-Hydroxy-2-((S)-(E)-3-(hydroxy)-3-(methyl)-5-(benzothienyl)pent-1-enyl)-5-oxocyclopentylsulfanyl]propylsulfanyl}acetic acid methyl ester] |
| 40 |  | COC(=O)CSCCCS[C@H]1C(=O)C[C@@H](O)[C@@H]1/C=C/C(O)CCc1ccc2ccccc2c1 (stereo partly drawn) [Example 9H, {3-[(1R,2S,3R)-3-Hydroxy-2-((S)-(E)-3-(hydroxy)-5-(naphthyl)pent-1-enyl)-5-oxocyclopentylsulfanyl]propylsulfanyl}acetic acid methyl ester] |
| 3400 |  | COC(=O)CSCCCS[C@H]1C(=O)C[C@@H](O)[C@@H]1/C=C/C(C)(O)CCc1ccc2ccccc2c1 (single isomer, unassigned) [Example 27L] |
| 900 | 9.3 | CC(O)(/C=C/[C@H]1[C@H](O)CC(=O)[C@@H]1SCCCSCC(=O)O)Cc1ccc2ccccc2c1 (stereo partly drawn) [Example 31L, {3-[(1R,2S,3R)-3-Hydroxy-2-((E)-3-hydroxy-3-methyl-4-naphthalen-2-yl-but-1-enyl)-5-oxocyclopentylsulfanyl]propylsulfanyl}acetic acid] |
| 32 | > 10 | O=C(O)CSCCCS[C@H]1C(=O)C[C@@H](O)[C@@H]1/C=C/C(O)Cc1ccc2ccccc2c1 (single isomer, unassigned) [Example 22H] |
| 100 | > 10 | COC(=O)CSCCCS[C@H]1C(=O)C[C@@H](O)[C@@H]1/C=C/C(O)Cc1ccc2ccccc2c1 (single isomer, unassigned) [Example 21H] |
| 91 |  | COC(=O)CSCCCS[C@H]1C(=O)C[C@@H](O)[C@@H]1/C=C/[C@@H](O)CCc1cc2ccccc2s1 [Example 13H, {3-[(1R,2S,3R)-3-Hydroxy-2-((S)-(E)-3-hydroxy-5-(benzothienyl)pent-1-enyl)-5-oxocyclopentylsulfanyl]propylsulfanyl}acetic acid methyl ester] |
| 13 | > 10 | COC(=O)CSCCCS[C@H]1C(=O)C[C@@H](O)[C@@H]1/C=C/C(O)Cc1ccc2ccccc2c1 (single isomer, unassigned) [Example 21L] |
|  | > 10 | COC(=O)CSCCCS[C@H]1C(=O)C[C@@H](O)[C@@H]1/C=C/C(O)CCc1ccc2ccccc2c1 (stereo partly drawn) [Example 9L, {3-[(1R,2S,3R)-3-Hydroxy-2-((S)-(E)-3-(hydroxy)-5-(naphthyl)pent-1-enyl)-5-oxocyclopentylsulfanyl]propylsulfanyl}acetic acid methyl ester] |
| 1700 | > 10 | CC(O)(/C=C/[C@H]1[C@H](O)CC(=O)[C@@H]1SCCCSCC(=O)O)CCc1ccc2ccccc2c1 (stereo partly drawn) [Example 28H, {3-[(1R,2S,3R)-3-Hydroxy-2-((S)-(E)-3-(hydroxy)-3-(methyl)-5-(naphthyl)pent-1-enyl)-5-oxocyclopentylsulfanyl]propylsulfanyl}acetic acid] |
| 1500 | > 10 | CC(O)(/C=C/[C@H]1[C@H](O)CC(=O)[C@@H]1SCCCSCC(=O)O)CCc1ccc2ccccc2c1 (stereo partly drawn) [Example 28L, {3-[(1R,2S,3R)-3-Hydroxy-2-((S)-(E)-3-(hydroxy)-3-(methyl)-5-(naphthyl)pent-1-enyl)-5-oxocyclopentylsulfanyl]propylsulfanyl}acetic acid] |
| 3100 | > 10 | COC(=O)CSCCCS[C@H]1C(=O)C[C@@H](O)[C@@H]1/C=C/C(C)(O)Cc1ccc2ccccc2c1 (stereo partly drawn) [Example 30H, {3-[(1R,2S,3R)-3-Hydroxy-2-((E)-3-hydroxy-3-methyl-4-naphthalen-2-yl-but-1-enyl)-5-oxocyclopentylsulfanyl]propylsulfanyl}acetic acid methyl ester] |
| 300 |  | COC(=O)CSCCCS[C@H]1C(=O)C[C@@H](O)[C@@H]1/C=C/[C@@](C)(O)CCc1cc2ccccc2s1 [Example 33L, {3-[(1R,2S,3R)-3-Hydroxy-2-((S)-(E)-3-(hydroxy)-3-(methyl)-5-(benzothienyl)pent-1-enyl)-5-oxocyclopentylsulfanyl]propylsulfanyl}acetic acid methyl ester] |
| 68 | > 10 | C[C@@](O)(/C=C/[C@H]1[C@H](O)CC(=O)[C@@H]1SCCCSCC(=O)O)CCc1cc2ccccc2s1 [Example 34L, {3-[(1R,2S,3R)-3-Hydroxy-2-((S)-(E)-3-(hydroxy)-3-(methyl)-5-(benzothienyl)pent-1-enyl)-5-oxocyclopentylsulfanyl]propylsulfanyl}acetic acid] |
